# Laboratory results from ChEMBL document CHEMBL1135808, “A new type of mixed anhydride and its applications to the synthesis of 7-substituted 8-chloro-5,5-dioxoimidazo[1,2-b][1,4,2]benzodithiazines with in vitro antitumor activity” (2002).
# Assays:
# BT-549 [1] = assay: In vitro growth inhibition against breast cancer BT 549 cell line was reported.; assay type: functional; conditions: Homo sapiens
# Hs-578T = assay: In vitro growth inhibition against breast cancer HS 578T cell line was reported.; assay type: functional; conditions: Homo sapiens
# HCT-116 = assay: Log of molar concentration leading to 50% cell death against colon cancer HCT116 cell line was reported; assay type: functional; conditions: Homo sapiens, read-out: Log LC50 (the source's name) (converted)
# SF-295 = assay: In vitro total growth inhibition against CNS cancer SF-295 cell lines was reported.; assay type: functional; conditions: Homo sapiens, read-out: Log TGI (converted)
# SNB-19 = assay: Log of molar concentration leading to 50% cell death against CNS cancer SNB-19 cell line was reported; assay type: functional; conditions: Homo sapiens, read-out: Log LC50 (the source's name) (converted)
# SF-268 = assay: In vitro total growth inhibition against CNS cancer SF-268 cell lines was reported.; assay type: functional; conditions: Homo sapiens, read-out: Log TGI (converted)
# Tumor Cell line = assay: Log of molar concentration leading to 50% cell death was reported; assay type: functional; conditions: Homo sapiens, read-out: Log LC50 (the source's name) (converted)
# HL-60 = assay: In vitro growth inhibition against leukemia HL-60(TB) cell line was reported.; assay type: functional; conditions: Homo sapiens
# MOLT-4 [2] = assay: In vitro total growth inhibition against leukemia MOLT-4 cell lines was reported.; assay type: functional; conditions: Homo sapiens, read-out: Log TGI (converted)
# M14 [3] = assay: In vitro growth inhibition against melanoma M14 cell line was reported.; assay type: functional; conditions: Homo sapiens
# SK-MEL-2 = assay: In vitro growth inhibition against melanoma SK-MEL-2 cell line was reported.; assay type: functional; conditions: Homo sapiens
# SK-MEL-5 = assay: In vitro growth inhibition against melanoma SK-MEL-5 cell line was reported.; assay type: functional; conditions: Homo sapiens
# HOP-92 [4] = assay: Log of molar concentration leading to 50% cell death against non-small-cell lung cancer HOP-92 cell line was reported; assay type: functional; conditions: Homo sapiens, read-out: Log LC50 (the source's name) (converted)
# NCI-H46 = assay: Log of molar concentration leading to 50% cell death against non-small-cell lung cancer […] cell line was reported; assay type: functional; conditions: Homo sapiens, read-out: Log LC50 (the source's name) (converted)
# NCI-H522 = assay: Log of molar concentration leading to 50% cell death against non-small-cell lung cancer NCI-522 cell line was reported; assay type: functional; conditions: Homo sapiens, read-out: Log LC50 (the source's name) (converted)
# NCI-H226 = assay: Log of molar concentration leading to 50% cell death against non-small-cell lung cancer NCI-H226 cell line was reported; assay type: functional; conditions: Homo sapiens, read-out: Log LC50 (the source's name) (converted)
# NCI-H23 = assay: Log of molar concentration leading to 50% cell death against non-small-cell lung cancer NCI-H23 cell line was reported; assay type: functional; conditions: Homo sapiens, read-out: Log LC50 (the source's name) (converted)
# OVCAR-4 [5] = assay: In vitro total growth inhibition against ovarian cancer OVCAR-4 cell lines was reported.; assay type: functional; conditions: Homo sapiens, read-out: Log TGI (converted)
# OVCAR-5 = assay: In vitro total growth inhibition against ovarian cancer OVCAR-5 cell lines was reported.; assay type: functional; conditions: Homo sapiens, read-out: Log TGI (converted)
# CAKI-1 = assay: In vitro growth inhibition against renal cancer CAKI-1 cell line was reported.; assay type: functional; conditions: Homo sapiens
# 786-0 = assay: In vitro growth inhibition against renal cancer […] cell line was reported.; assay type: functional; conditions: Homo sapiens
# A498 [6] = assay: In vitro growth inhibition against renal cancer A498 cell line was reported.; assay type: functional; conditions: Homo sapiens
# SN12C [7] = assay: In vitro growth inhibition against renal cancer SN12C cell line was reported.; assay type: functional; conditions: Homo sapiens
# SN12C [8] = assay: In vitro total growth inhibition against renal cancer SN12C cell lines was reported.; assay type: functional; conditions: Homo sapiens, read-out: Log TGI (converted)
# UO-31 [9] = assay: In vitro growth inhibition against renal cancer UO-31 cell line was reported.; assay type: functional; conditions: Homo sapiens
# MOLT-4 [10] = assay: Log of molar concentration leading to 50% cell death against leukemia MOLT-4 cell line was reported; assay type: functional; conditions: Homo sapiens, read-out: Log LC50 (the source's name) (converted)
# HCT-15 = assay: Log of molar concentration leading to 50% cell death against colon cancer HCT-15 cell line was reported; assay type: functional; conditions: Homo sapiens, read-out: Log LC50 (the source's name) (converted)
# HT-29 = assay: Log of molar concentration leading to 50% cell death against colon cancer HT-29 cell line was reported; assay type: functional; conditions: Homo sapiens, read-out: Log LC50 (the source's name) (converted)
# OVCAR-4 [11] = assay: Log of molar concentration leading to 50% cell death against ovarian cancer OVCAR-4 cell line was reported; assay type: functional; conditions: Homo sapiens, read-out: Log LC50 (the source's name) (converted)
# BT-549 [12] = assay: Log of molar concentration leading to 50% cell death against breast cancer BT 549 cell line was reported; assay type: functional; conditions: Homo sapiens, read-out: Log LC50 (the source's name) (converted)
# MDA-N = assay: Log of molar concentration leading to 50% cell death against breast cancer MDA-Ncell line was reported; assay type: functional; conditions: Homo sapiens, read-out: Log LC50 (the source's name) (converted)
# NCI/ADR-RES = assay: Log of molar concentration leading to 50% cell death against breast cancer NCI/ADR-RES cell line was reported; assay type: functional; conditions: Homo sapiens, read-out: Log LC50 (the source's name) (converted)
# T47D = assay: Log of molar concentration leading to 50% cell death against breast cancer […] cell line was reported; assay type: functional; conditions: Homo sapiens, read-out: Log LC50 (the source's name) (converted)
# LOX IMVI = assay: In vitro total growth inhibition against melanoma LOX IMVI cell lines was reported.; assay type: functional; conditions: Homo sapiens, read-out: Log TGI (converted)
# M14 [13] = assay: In vitro total growth inhibition against melanoma M14 cell lines was reported.; assay type: functional; conditions: Homo sapiens, read-out: Log TGI (converted)
# A498 [14] = assay: Log of molar concentration leading to 50% cell death against renal cancer A498 cell line was reported; assay type: functional; conditions: Homo sapiens, read-out: Log LC50 (the source's name) (converted)
# SN12C [15] = assay: Log of molar concentration leading to 50% cell death against renal cancer SN12C cell line was reported; assay type: functional; conditions: Homo sapiens, read-out: Log LC50 (the source's name) (converted)
# UO-31 [16] = assay: Log of molar concentration leading to 50% cell death against renal cancer UO-31 cell line was reported; assay type: functional; conditions: Homo sapiens, read-out: Log LC50 (the source's name) (converted)
# ACHN = assay: In vitro growth inhibition against renal cancer ACHN cell line was reported.; assay type: functional; conditions: Homo sapiens
# COLO 205 = assay: In vitro growth inhibition against colon cancer COLO 205 cell line was reported.; assay type: functional; conditions: Homo sapiens
# UO-31 [17] = assay: In vitro total growth inhibition against renal cancer UO-31 cell lines was reported.; assay type: functional; conditions: Homo sapiens, read-out: Log TGI (converted)
# SR = assay: In vitro total growth inhibition against leukemia SR cell lines was reported.; assay type: functional; conditions: Homo sapiens, read-out: Log TGI (converted)
# A498 [18] = assay: In vitro total growth inhibition against renal cancer A-498 cell lines was reported.; assay type: functional; conditions: Homo sapiens, read-out: Log TGI (converted)
# OVCAR-8 = assay: Log of molar concentration leading to 50% cell death against ovarian cancer OVCAR-8 cell line was reported; assay type: functional; conditions: Homo sapiens, read-out: Log LC50 (the source's name) (converted)
# HOP-92 [19] = assay: In vitro total growth inhibition against non-small-cell lung cancer HOP-92 cell lines was reported.; conditions: Homo sapiens, read-out: Log TGI (converted)
smiles,measurement,setting,value
O=C(Nc1cccc2nsnc12)c1cc2c(cc1Cl)Sc1nccn1S2(=O)=O,GI50,BT-549 [1],12.3 µM
same,GI50,Hs-578T,4.17 µM
same,CC50,HCT-116,12.9 µM
same,TGI,SF-295,25.1 µM
same,CC50,SNB-19,50.1 µM
same,TGI,SF-268,16.2 µM
same,CC50,Tumor Cell line,95.5 µM
same,GI50,HL-60,1.86 µM
same,TGI,MOLT-4 [2],9.33 µM
same,GI50,M14 [3],17.4 µM
same,GI50,SK-MEL-2,10 µM
same,GI50,SK-MEL-5,15.8 µM
same,CC50,HOP-92 [4],95.5 µM
same,CC50,NCI-H46,8.91 µM
same,CC50,NCI-H522,89.1 µM
same,CC50,NCI-H226,58.9 µM
same,CC50,NCI-H23,55 µM
same,TGI,OVCAR-4 [5],10.2 µM
same,TGI,OVCAR-5,83.2 µM
same,GI50,CAKI-1,4.79 µM
same,GI50,786-0,16.6 µM
same,GI50,A498 [6],13.5 µM
same,GI50,SN12C [7],15.1 µM
same,TGI,SN12C [8],28.8 µM
same,GI50,UO-31 [9],2.09 µM
same,CC50,MOLT-4 [10],83.2 µM
same,CC50,HCT-15,72.4 µM
same,CC50,HT-29,28.8 µM
same,CC50,OVCAR-4 [11],87.1 µM
same,CC50,BT-549 [12],85.1 µM
same,CC50,MDA-N,56.2 µM
same,CC50,NCI/ADR-RES,83.2 µM
same,CC50,T47D,7.76 µM
same,TGI,LOX IMVI,40.7 µM
same,TGI,M14 [13],46.8 µM
same,CC50,A498 [14],63.1 µM
same,CC50,SN12C [15],56.2 µM
same,CC50,UO-31 [16],50.1 µM
same,GI50,ACHN,12.6 µM
same,GI50,COLO 205,17.4 µM
same,TGI,UO-31 [17],4.37 µM
same,TGI,SR,4.79 µM
same,TGI,A498 [18],26.3 µM
same,CC50,OVCAR-8,38 µM
same,TGI,HOP-92 [19],25.7 µM
